Tests used:
Test in all cases: SelectScreen kinase selectivity assay
Format in all cases: biochemical
ABL2 = biological target: T1, ABL2 (Homo sapiens, UniProt P42684)
T1 construct: purchased Thermo Fisher Scientific (SelectScreen service)
Protocol: (§1) The kinase selectivity analysis of PKHD-5 was performed using the SelectScreen kinase analysis service provided by Thermo Fisher Scientific. The experiment initially involved the preparation of a series of inhibitor solutions at varying concentrations, which were then reacted with various kinase targets under standardized conditions to calculate the percentage inhibition for each test solution. Ultimately, the IC50 values were calculated based on the concentration-inhibition curves by fitting a four-parameter logistic curve, thereby assessing the potency and selectivity of the inhibitors. The analysis results are detailed in Supplementary Table S1.

MUSK = biological target: T2, MUSK (Homo sapiens, UniProt O15146)
T2 construct: purchased Thermo Fisher Scientific (SelectScreen service)
T2 sequence (O15146 24-869): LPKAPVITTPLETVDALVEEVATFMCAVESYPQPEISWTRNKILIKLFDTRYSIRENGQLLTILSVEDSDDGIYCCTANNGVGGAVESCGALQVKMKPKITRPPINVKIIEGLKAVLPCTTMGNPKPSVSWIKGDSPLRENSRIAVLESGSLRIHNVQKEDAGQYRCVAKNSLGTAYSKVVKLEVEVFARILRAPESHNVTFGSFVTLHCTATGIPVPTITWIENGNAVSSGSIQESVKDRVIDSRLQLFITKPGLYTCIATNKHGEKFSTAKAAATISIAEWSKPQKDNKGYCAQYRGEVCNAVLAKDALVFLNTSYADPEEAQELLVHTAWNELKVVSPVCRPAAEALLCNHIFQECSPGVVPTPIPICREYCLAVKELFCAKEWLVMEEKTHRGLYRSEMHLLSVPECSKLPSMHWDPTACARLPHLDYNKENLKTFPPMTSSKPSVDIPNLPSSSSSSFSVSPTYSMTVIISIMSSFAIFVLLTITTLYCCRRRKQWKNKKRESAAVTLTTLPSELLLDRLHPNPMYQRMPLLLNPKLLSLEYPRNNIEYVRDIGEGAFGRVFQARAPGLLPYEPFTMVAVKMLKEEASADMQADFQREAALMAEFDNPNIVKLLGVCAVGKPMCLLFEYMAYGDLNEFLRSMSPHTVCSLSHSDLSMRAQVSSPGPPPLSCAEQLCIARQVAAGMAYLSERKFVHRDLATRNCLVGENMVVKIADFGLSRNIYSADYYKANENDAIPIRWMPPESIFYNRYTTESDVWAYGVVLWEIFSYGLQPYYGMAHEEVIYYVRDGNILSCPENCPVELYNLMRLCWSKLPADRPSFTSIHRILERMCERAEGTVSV
Protocol: as §1

INSRR = biological target: T3, INSRR (Homo sapiens, UniProt P14616)
T3 construct: purchased Thermo Fisher Scientific (SelectScreen service)
Protocol: as §1

FES = biological target: T4, FES (Homo sapiens, UniProt P07332)
T4 construct: purchased Thermo Fisher Scientific (SelectScreen service)
Protocol: as §1

DDR2 = biological target: T5, DDR2 (Homo sapiens, UniProt Q16832)
T5 construct: purchased Thermo Fisher Scientific (SelectScreen service)
Protocol: as §1

PTK2 = biological target: T6, PTK2 (Homo sapiens, UniProt Q05397)
T6 construct: purchased Thermo Fisher Scientific (SelectScreen service)
Protocol: as §1

NTRK1 = biological target: T7, NTRK1 (Homo sapiens, UniProt P04629)
T7 construct: purchased Thermo Fisher Scientific (SelectScreen service)
T7 sequence (P04629 33-796): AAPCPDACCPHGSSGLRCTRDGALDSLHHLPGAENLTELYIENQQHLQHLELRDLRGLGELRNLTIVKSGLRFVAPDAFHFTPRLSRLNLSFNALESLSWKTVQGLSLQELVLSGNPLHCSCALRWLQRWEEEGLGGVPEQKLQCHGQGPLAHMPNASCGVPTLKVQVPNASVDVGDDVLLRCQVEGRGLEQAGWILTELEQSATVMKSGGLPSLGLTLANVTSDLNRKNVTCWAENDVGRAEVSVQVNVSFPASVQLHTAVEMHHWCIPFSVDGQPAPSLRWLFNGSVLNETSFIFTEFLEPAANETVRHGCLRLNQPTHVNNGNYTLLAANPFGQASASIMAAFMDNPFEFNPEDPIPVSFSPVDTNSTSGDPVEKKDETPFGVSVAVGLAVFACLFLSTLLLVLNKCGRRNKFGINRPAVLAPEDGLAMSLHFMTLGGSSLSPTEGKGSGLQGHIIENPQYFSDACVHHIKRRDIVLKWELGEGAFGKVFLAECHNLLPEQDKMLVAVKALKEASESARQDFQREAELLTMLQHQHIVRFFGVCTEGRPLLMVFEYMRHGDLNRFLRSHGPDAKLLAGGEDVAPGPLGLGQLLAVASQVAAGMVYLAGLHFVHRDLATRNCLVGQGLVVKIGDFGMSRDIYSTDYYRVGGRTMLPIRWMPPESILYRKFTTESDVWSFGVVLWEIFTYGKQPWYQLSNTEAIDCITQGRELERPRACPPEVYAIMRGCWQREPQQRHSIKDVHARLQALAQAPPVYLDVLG
Protocol: as §1

EPHB2 = biological target: T8, EPHB2 (Homo sapiens, UniProt P29323)
T8 construct: purchased Thermo Fisher Scientific (SelectScreen service)
Protocol: as §1

PIM1 = biological target: T9, PIM1 (Homo sapiens, UniProt P11309)
T9 construct: purchased Thermo Fisher Scientific (SelectScreen service)
Protocol: as §1

FYN = biological target: T10, FYN (Homo sapiens, UniProt P06241)
T10 construct: purchased Thermo Fisher Scientific (SelectScreen service)
Protocol: as §1

ZAP70 = biological target: T11, ZAP70 (Homo sapiens, UniProt P43403)
T11 construct: purchased Thermo Fisher Scientific (SelectScreen service)
Protocol: as §1

MERTK = biological target: T12, MERTK (Homo sapiens, UniProt Q12866)
T12 construct: purchased Thermo Fisher Scientific (SelectScreen service)
T12 sequence (Q12866 21-999): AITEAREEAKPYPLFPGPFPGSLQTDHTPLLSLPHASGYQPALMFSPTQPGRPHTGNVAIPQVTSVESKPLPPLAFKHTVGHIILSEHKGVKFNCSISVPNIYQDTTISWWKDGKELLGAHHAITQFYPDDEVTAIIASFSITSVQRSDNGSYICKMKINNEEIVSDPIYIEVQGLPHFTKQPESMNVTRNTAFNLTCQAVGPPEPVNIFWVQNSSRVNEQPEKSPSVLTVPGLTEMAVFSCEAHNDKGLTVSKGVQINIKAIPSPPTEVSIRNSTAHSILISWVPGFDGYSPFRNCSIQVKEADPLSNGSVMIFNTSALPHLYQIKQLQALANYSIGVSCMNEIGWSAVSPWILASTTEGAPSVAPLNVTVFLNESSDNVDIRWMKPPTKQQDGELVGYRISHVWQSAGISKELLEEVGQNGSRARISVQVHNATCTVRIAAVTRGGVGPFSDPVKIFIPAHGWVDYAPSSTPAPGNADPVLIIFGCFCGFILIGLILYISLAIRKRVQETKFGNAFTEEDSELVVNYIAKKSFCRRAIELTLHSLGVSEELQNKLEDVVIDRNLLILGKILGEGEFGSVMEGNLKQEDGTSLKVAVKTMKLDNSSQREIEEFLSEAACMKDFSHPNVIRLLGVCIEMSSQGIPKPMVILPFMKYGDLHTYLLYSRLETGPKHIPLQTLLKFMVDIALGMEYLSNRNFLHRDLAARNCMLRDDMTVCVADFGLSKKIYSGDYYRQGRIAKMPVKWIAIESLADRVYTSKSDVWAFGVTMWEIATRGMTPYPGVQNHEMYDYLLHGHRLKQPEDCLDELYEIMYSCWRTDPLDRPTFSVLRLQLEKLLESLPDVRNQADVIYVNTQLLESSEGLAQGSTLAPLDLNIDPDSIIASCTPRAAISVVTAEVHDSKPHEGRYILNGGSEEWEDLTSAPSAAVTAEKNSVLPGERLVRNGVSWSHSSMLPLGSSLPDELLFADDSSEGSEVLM
Protocol: as §1

KIT = biological target: T13, KIT (Homo sapiens, UniProt P10721)
T13 construct: purchased Thermo Fisher Scientific (SelectScreen service)
Protocol: as §1

INSR = biological target: T14, INSR (Homo sapiens, UniProt P06213)
T14 construct: purchased Thermo Fisher Scientific (SelectScreen service)
Protocol: as §1

ERBB4 = biological target: T15, ERBB4 (Homo sapiens, UniProt Q15303)
T15 construct: purchased Thermo Fisher Scientific (SelectScreen service)
T15 sequence (Q15303 26-1308): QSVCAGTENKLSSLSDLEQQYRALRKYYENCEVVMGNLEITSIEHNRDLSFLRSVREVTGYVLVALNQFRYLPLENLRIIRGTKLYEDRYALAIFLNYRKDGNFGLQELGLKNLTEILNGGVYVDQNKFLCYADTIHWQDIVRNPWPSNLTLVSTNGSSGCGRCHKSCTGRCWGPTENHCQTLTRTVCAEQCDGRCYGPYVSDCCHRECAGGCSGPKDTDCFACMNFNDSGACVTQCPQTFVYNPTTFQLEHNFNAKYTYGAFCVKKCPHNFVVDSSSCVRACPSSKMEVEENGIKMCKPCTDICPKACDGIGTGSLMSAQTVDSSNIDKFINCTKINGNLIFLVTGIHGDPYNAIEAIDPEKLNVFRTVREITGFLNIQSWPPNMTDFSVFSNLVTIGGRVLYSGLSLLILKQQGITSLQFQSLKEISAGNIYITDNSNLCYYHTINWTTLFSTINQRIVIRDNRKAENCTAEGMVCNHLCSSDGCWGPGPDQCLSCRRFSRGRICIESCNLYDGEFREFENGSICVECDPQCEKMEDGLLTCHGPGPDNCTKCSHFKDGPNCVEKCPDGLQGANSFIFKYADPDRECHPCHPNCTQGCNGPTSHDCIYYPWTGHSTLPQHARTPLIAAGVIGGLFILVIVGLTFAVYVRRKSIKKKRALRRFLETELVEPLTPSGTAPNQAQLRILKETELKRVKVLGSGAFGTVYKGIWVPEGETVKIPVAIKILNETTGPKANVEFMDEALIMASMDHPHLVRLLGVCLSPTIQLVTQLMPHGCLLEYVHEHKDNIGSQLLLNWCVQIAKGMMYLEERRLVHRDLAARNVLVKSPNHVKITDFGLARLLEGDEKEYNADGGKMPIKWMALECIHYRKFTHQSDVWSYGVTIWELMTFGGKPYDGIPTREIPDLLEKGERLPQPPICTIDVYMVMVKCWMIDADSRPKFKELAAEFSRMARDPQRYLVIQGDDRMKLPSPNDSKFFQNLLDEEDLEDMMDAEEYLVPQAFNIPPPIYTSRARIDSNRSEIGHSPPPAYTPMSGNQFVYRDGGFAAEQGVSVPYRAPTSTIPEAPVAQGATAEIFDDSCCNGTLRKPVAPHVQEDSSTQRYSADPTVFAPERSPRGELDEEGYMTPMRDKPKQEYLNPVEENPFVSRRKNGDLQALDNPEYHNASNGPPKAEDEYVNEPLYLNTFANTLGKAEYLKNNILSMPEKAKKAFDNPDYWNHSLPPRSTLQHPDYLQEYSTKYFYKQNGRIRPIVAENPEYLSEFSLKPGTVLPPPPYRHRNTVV
Protocol: as §1

ABL1 = biological target: T16, ABL1 (Homo sapiens, UniProt P00519)
T16 construct: purchased Thermo Fisher Scientific (SelectScreen service)
Protocol: as §1

MET = biological target: T17, MET (Homo sapiens, UniProt P08581)
T17 construct: purchased Thermo Fisher Scientific (SelectScreen service)
Protocol: as §1

CSF1R = biological target: T18, CSF1R (Homo sapiens, UniProt P07333)
T18 construct: purchased Thermo Fisher Scientific (SelectScreen service)
Protocol: as §1

MST1R = biological target: T19, MST1R (Homo sapiens, UniProt Q04912)
T19 construct: purchased Thermo Fisher Scientific (SelectScreen service)
Protocol: as §1

FGFR2 = biological target: T20, FGFR2 (Homo sapiens, UniProt P21802)
T20 construct: purchased Thermo Fisher Scientific (SelectScreen service)
Protocol: as §1

RAF1 = biological target: T21, RAF1 (Homo sapiens, UniProt P04049, Y340D/Y341D)
T21 construct: purchased Thermo Fisher Scientific (SelectScreen service)
Protocol: as §1

HCK = biological target: T22, HCK (Homo sapiens, UniProt P08631)
T22 construct: purchased Thermo Fisher Scientific (SelectScreen service)
Protocol: as §1

LYN = biological target: T23, LYN (Homo sapiens, UniProt P07948)
T23 construct: purchased Thermo Fisher Scientific (SelectScreen service)
Protocol: as §1

CDK1 = biological target: T24, CDK1 (Homo sapiens, UniProt P06493)
T24 construct: purchased Thermo Fisher Scientific (SelectScreen service)
Protocol: as §1

JAK1 = biological target: T25, JAK1 (Homo sapiens, UniProt P23458)
T25 construct: purchased Thermo Fisher Scientific (SelectScreen service)
Protocol: as §1

YES1 = biological target: T26, YES1 (Homo sapiens, UniProt P07947)
T26 construct: purchased Thermo Fisher Scientific (SelectScreen service)
Protocol: as §1

ALK = biological target: T27, ALK (Homo sapiens, UniProt Q9UM73)
T27 construct: purchased Thermo Fisher Scientific (SelectScreen service)
Protocol: as §1

ITK = biological target: T28, ITK (Homo sapiens, UniProt Q08881)
T28 construct: purchased Thermo Fisher Scientific (SelectScreen service)
Protocol: as §1

ROS1 = biological target: T29, ROS1 (Homo sapiens, UniProt P08922)
T29 construct: purchased Thermo Fisher Scientific (SelectScreen service)
Protocol: as §1

EPHA6 = biological target: T30, EPHA6 (Homo sapiens, UniProt Q9UF33)
T30 construct: purchased Thermo Fisher Scientific (SelectScreen service)
Protocol: as §1

EPHA8 = biological target: T31, EPHA8 (Homo sapiens, UniProt P29322)
T31 construct: purchased Thermo Fisher Scientific (SelectScreen service)
Protocol: as §1

FGFR1 = biological target: T32, FGFR1 (Homo sapiens, UniProt P11362)
T32 construct: purchased Thermo Fisher Scientific (SelectScreen service)
Protocol: as §1

NTRK3 = biological target: T33, NTRK3 (Homo sapiens, UniProt Q16288)
T33 construct: purchased Thermo Fisher Scientific (SelectScreen service)
Protocol: as §1

LTK = biological target: T34, LTK (Homo sapiens, UniProt P29376)
T34 construct: purchased Thermo Fisher Scientific (SelectScreen service)
Protocol: as §1

BMX = biological target: T35, BMX (Homo sapiens, UniProt P51813)
T35 construct: purchased Thermo Fisher Scientific (SelectScreen service)
Protocol: as §1

TYRO3 = biological target: T36, TYRO3 (Homo sapiens, UniProt Q06418)
T36 construct: purchased Thermo Fisher Scientific (SelectScreen service)
Protocol: as §1

ERBB2 = biological target: T37, ERBB2 (Homo sapiens, UniProt P04626)
T37 construct: purchased Thermo Fisher Scientific (SelectScreen service)
T37 sequence (P04626 23-1255): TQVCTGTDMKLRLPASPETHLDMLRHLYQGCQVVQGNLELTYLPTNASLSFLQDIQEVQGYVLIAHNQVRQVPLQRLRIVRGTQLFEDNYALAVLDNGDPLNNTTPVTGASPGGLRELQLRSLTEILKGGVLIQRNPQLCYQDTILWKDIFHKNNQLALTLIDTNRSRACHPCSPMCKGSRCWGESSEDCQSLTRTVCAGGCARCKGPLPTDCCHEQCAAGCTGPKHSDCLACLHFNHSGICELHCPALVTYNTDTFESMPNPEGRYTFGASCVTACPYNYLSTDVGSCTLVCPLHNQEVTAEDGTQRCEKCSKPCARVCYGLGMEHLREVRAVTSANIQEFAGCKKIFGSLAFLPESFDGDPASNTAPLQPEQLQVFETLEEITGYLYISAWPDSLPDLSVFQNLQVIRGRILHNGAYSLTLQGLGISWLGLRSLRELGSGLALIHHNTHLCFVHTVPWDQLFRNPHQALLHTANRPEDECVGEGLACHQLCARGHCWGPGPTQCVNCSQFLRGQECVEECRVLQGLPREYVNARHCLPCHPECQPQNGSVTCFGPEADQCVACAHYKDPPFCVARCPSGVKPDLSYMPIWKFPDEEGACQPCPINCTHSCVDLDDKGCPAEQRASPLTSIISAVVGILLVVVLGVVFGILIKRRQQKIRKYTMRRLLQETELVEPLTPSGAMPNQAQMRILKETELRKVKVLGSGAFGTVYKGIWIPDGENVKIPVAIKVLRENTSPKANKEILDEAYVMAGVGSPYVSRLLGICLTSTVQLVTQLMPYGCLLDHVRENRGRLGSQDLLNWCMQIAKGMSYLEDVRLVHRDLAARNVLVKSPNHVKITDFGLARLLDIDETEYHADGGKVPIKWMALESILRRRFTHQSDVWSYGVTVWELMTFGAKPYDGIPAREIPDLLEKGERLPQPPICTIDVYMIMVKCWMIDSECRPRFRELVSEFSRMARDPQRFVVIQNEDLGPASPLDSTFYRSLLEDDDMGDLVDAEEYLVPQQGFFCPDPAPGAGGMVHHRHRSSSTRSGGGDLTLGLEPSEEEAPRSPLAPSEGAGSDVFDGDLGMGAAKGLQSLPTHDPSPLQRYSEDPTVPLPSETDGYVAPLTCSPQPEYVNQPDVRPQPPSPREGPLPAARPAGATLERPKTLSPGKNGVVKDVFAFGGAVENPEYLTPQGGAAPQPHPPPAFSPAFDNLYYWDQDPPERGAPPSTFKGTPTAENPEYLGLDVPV
Protocol: as §1

EPHA5 = biological target: T38, EPHA5 (Homo sapiens, UniProt P54756)
T38 construct: purchased Thermo Fisher Scientific (SelectScreen service)
Protocol: as §1

PDGFRA = biological target: T39, PDGFRA (Homo sapiens, UniProt P16234)
T39 construct: purchased Thermo Fisher Scientific (SelectScreen service)
Protocol: as §1

JAK3 = biological target: T40, JAK3 (Homo sapiens, UniProt P52333)
T40 construct: purchased Thermo Fisher Scientific (SelectScreen service)
Protocol: as §1

Measured: IC50

Cc1ccc(O)c(C)c1-n1c(N)c(C(N)=O)c2cc(CCCCCC(=O)NO)c(C)nc21 [PKHD-5]
> 50 µM: all assays above
